According to ChEMBL document CHEMBL1155301, “Optimization of the aminopyridopyrazinones class of PDE5 inhibitors: discovery of 3-[(trans-4-hydroxycyclohexyl)amino]-7-(6-methoxypyridin-3-yl)-1-(2-propoxyethyl)pyrido[3,4-b]pyrazin-2(1H)-one” (Bioorg Med Chem Lett, 2009):

System: not listed separately
Assay: Clearance in dog at 2 mg/kg, po and 2 mg/kg, iv
Type: ADME, organism-based, Canis lupus familiaris
Settings: in vivo

First: CCCOCCn1c(=O)c(NCC(=O)N2CCOCC2)nc2cnc(-c3ccc(OC)nc3)cc21
Second: CCCOCCn1c(=O)c(NCC(=O)N2CCOCC2)nc2ncc(-c3ccc(OC)nc3)cc21
The clearance of the first is 3.2-fold lower: 5.3 mL/min/kg for the first, 16.7 mL/min/kg for the second.

First: CCCOCCn1c(=O)c(NC[C@H](C)O)nc2cnc(-c3ccc(OC)nc3)cc21
Second: CCCOCCn1c(=O)c(NCC(=O)N2CCN(CC)CC2)nc2cnc(-c3ccc(OC)nc3)cc21
The clearance of the first is 2.1-fold lower: 17.8 mL/min/kg for the first, 37 mL/min/kg for the second.

Compound CCCOCCn1c(=O)c(NCC(=O)NC)nc2ncc(-c3ccc(OC)nc3)cc21 has a clearance of 8.8 mL/min/kg.

Species on record: Rattus norvegicus
Assay: Unbound volume of distribution in rat
Type: ADME, organism-based
Settings: in vivo

CCCOCCn1c(=O)c(NC[C@H](C)O)nc2cnc(-c3ccc(OC)nc3)cc21 and CCCOCCn1c(=O)c(NCCCO)nc2cnc(-c3ccc(OC)nc3)cc21 are within 1.5-fold of each other in Vdu: 35 L/kg for the first, 31 L/kg for the second.

System: not listed separately
Assay: Half life in rat at 2 mg/kg, po and 2 mg/kg, iv
Type: ADME, organism-based
Settings: in vivo

Compared with CCCOCCn1c(=O)c(NCC(=O)N2CCOCC2)nc2cnc(-c3ccc(OC)nc3)cc21, CCCOCCn1c(=O)c(NCC(=O)N2CCC(O)CC2)nc2cnc(-c3ccc(OC)nc3)cc21 is 2.1-fold higher in half-life: 0.8 h for the first, 1.7 h for the second.

First: CCCOCCn1c(=O)c(NC[C@H](C)O)nc2cnc(-c3ccc(OC)nc3)cc21
Second: CCCOCCn1c(=O)c(NCCCO)nc2cnc(-c3ccc(OC)nc3)cc21
The half-life of the first is 1.9-fold higher: 1.3 h for the first, 0.7 h for the second.

CCCOCCn1c(=O)c(N[C@H](CC)CO)nc2cnc(-c3ccc(OC)nc3)cc21 and CCCOCCn1c(=O)c(NCC(=O)N2CCN(CC)CC2)nc2cnc(-c3ccc(OC)nc3)cc21 are within 1.5-fold of each other in half-life: 1.8 h for the first, 1.4 h for the second.

CCCOCCn1c(=O)c(NCC(=O)N2CCOCC2)nc2ncc(-c3ccc(OC)nc3)cc21 and CCCOCCn1c(=O)c(NCC(=O)NC)nc2ncc(-c3ccc(OC)nc3)cc21 are the same in half-life: 0.8 h for the first, 0.8 h for the second.

Species on record: Rattus norvegicus
Assay: Unbound clearance in rat
Type: ADME, organism-based
Settings: in vivo

CCCOCCn1c(=O)c(NC[C@H](C)O)nc2cnc(-c3ccc(OC)nc3)cc21 and CCCOCCn1c(=O)c(NCCCO)nc2cnc(-c3ccc(OC)nc3)cc21 are within 1.5-fold of each other in CL free: 500 mL/min/kg for the first, 730 mL/min/kg for the second.

System: not listed separately
Assay: Half life in dog at 2 mg/kg, po and 2 mg/kg, iv
Type: ADME, organism-based, Canis lupus familiaris
Settings: in vivo

First: CCCOCCn1c(=O)c(NCC(=O)N2CCOCC2)nc2cnc(-c3ccc(OC)nc3)cc21
Second: CCCOCCn1c(=O)c(NCC(=O)N2CCOCC2)nc2ncc(-c3ccc(OC)nc3)cc21
The half-life of the first is 4.3-fold higher: 3.9 h for the first, 0.9 h for the second.

CCCOCCn1c(=O)c(NC[C@H](C)O)nc2cnc(-c3ccc(OC)nc3)cc21 and CCCOCCn1c(=O)c(NCC(=O)N2CCN(CC)CC2)nc2cnc(-c3ccc(OC)nc3)cc21 are within 1.5-fold of each other in half-life: 4.1 h for the first, 3.5 h for the second.

For CCCOCCn1c(=O)c(NCC(=O)NC)nc2ncc(-c3ccc(OC)nc3)cc21, the half-life was 2.4 h.

System: not listed separately
Assay: Oral bioavailability in dog at 2 mg/kg
Type: ADME, organism-based, Canis lupus familiaris
Settings: in vivo

CCCOCCn1c(=O)c(NCC(=O)N2CCOCC2)nc2cnc(-c3ccc(OC)nc3)cc21 and CCCOCCn1c(=O)c(NCC(=O)N2CCOCC2)nc2ncc(-c3ccc(OC)nc3)cc21 are the same in bioavailability: 32% for the first, 32% for the second.

First: CCCOCCn1c(=O)c(NC[C@H](C)O)nc2cnc(-c3ccc(OC)nc3)cc21
Second: CCCOCCn1c(=O)c(NCC(=O)N2CCN(CC)CC2)nc2cnc(-c3ccc(OC)nc3)cc21
The bioavailability of the first is higher: 38% for the first, 15% for the second.

Compound CCCOCCn1c(=O)c(NCC(=O)NC)nc2ncc(-c3ccc(OC)nc3)cc21 has a bioavailability of 52%.

System: not listed separately
Assay: Clearance in rat at 2 mg/kg, po and 2 mg/kg, iv
Type: ADME, organism-based
Settings: in vivo

CCCOCCn1c(=O)c(NCC(=O)N2CCOCC2)nc2cnc(-c3ccc(OC)nc3)cc21 and CCCOCCn1c(=O)c(NCC(=O)N2CCC(O)CC2)nc2cnc(-c3ccc(OC)nc3)cc21 are within 1.5-fold of each other in clearance: 9.1 mL/min/kg for the first, 10.5 mL/min/kg for the second.

Compared with CCCOCCn1c(=O)c(NC[C@H](C)O)nc2cnc(-c3ccc(OC)nc3)cc21, CCCOCCn1c(=O)c(NCCCO)nc2cnc(-c3ccc(OC)nc3)cc21 is 2-fold higher in clearance: 13.8 mL/min/kg for the first, 28 mL/min/kg for the second.

CCCOCCn1c(=O)c(N[C@H](CC)CO)nc2cnc(-c3ccc(OC)nc3)cc21 and CCCOCCn1c(=O)c(NCC(=O)N2CCN(CC)CC2)nc2cnc(-c3ccc(OC)nc3)cc21 are within 1.5-fold of each other in clearance: 22.6 mL/min/kg for the first, 28 mL/min/kg for the second.

CCCOCCn1c(=O)c(NCC(=O)N2CCOCC2)nc2ncc(-c3ccc(OC)nc3)cc21 and CCCOCCn1c(=O)c(NCC(=O)NC)nc2ncc(-c3ccc(OC)nc3)cc21 are within 1.5-fold of each other in clearance: 18 mL/min/kg for the first, 19.5 mL/min/kg for the second.

System: not listed separately
Assay: Oral bioavailability in rat at 2 mg/kg
Type: ADME, organism-based
Settings: in vivo

Compared with CCCOCCn1c(=O)c(NCC(=O)N2CCOCC2)nc2cnc(-c3ccc(OC)nc3)cc21, CCCOCCn1c(=O)c(NCC(=O)N2CCC(O)CC2)nc2cnc(-c3ccc(OC)nc3)cc21 is higher in bioavailability: 35% for the first, 52% for the second.

Compared with CCCOCCn1c(=O)c(NC[C@H](C)O)nc2cnc(-c3ccc(OC)nc3)cc21, CCCOCCn1c(=O)c(NCCCO)nc2cnc(-c3ccc(OC)nc3)cc21 is higher in bioavailability: 42% for the first, 52% for the second.

CCCOCCn1c(=O)c(N[C@H](CC)CO)nc2cnc(-c3ccc(OC)nc3)cc21 and CCCOCCn1c(=O)c(NCC(=O)N2CCN(CC)CC2)nc2cnc(-c3ccc(OC)nc3)cc21 are the same in bioavailability: 61% for the first, 61% for the second.

First: CCCOCCn1c(=O)c(NCC(=O)N2CCOCC2)nc2ncc(-c3ccc(OC)nc3)cc21
Second: CCCOCCn1c(=O)c(NCC(=O)NC)nc2ncc(-c3ccc(OC)nc3)cc21
The bioavailability of the first is higher: 51% for the first, 39% for the second.

Biological target: cGMP-specific 3',5'-cyclic phosphodiesterase (Homo sapiens, UniProt O76074)
Assay: Inhibition of PDE5
Settings: not given

Compared with CCCOCCn1c(=O)c(NCC(=O)N2CCN(C)CC2)nc2cnc(-c3ccc(OC)nc3)cc21, CCCOCCn1c(=O)c(NCC(=O)N2CCN(CC)CC2)nc2cnc(-c3ccc(OC)nc3)cc21 is 1.9-fold higher in IC50: 0.07 nM for the first, 0.13 nM for the second. The first is the more potent here.

Going from CCCOCCn1c(=O)c(N[C@H](C)CO)nc2ncc(-c3ccc(OC)nc3)cc21 to CCCOCCn1c(=O)c(NCC(=O)NC)nc2ncc(-c3ccc(OC)nc3)cc21, the IC50 falls from 0.88 nM to 0.43 nM (2-fold). The second is the more potent here.

CCCOCCn1c(=O)c(NCC(=O)N2CCOCC2)nc2cnc(-c3ccc(OC)nc3)cc21 and CCCOCCn1c(=O)c(NCC(=O)N2CCC(O)CC2)nc2cnc(-c3ccc(OC)nc3)cc21 are within 1.5-fold of each other in IC50: 0.15 nM for the first, 0.13 nM for the second.

CCCOCCn1c(=O)c(NCC(=O)NC)nc2cnc(-c3ccc(OC)nc3)cc21 and CCCOCCn1c(=O)c(NC[C@H](C)O)nc2cnc(-c3ccc(OC)nc3)cc21 are within 1.5-fold of each other in IC50: 0.07 nM for the first, 0.09 nM for the second.

CCCOCCn1c(=O)c(N[C@H](CC)CO)nc2cnc(-c3ccc(OC)nc3)cc21 and CCCOCCn1c(=O)c(NCCCO)nc2cnc(-c3ccc(OC)nc3)cc21 are within 1.5-fold of each other in IC50: 0.25 nM for the first, 0.26 nM for the second.

With CCCOCCn1c(=O)c(NCC(=O)N2CCOCC2)nc2ncc(-c3ccc(OC)nc3)cc21 the IC50 was 1.17 nM.

System: not listed separately
Assay: Volume of distribution in dog at 2 mg/kg, iv and 2 mg/kg, po
Type: ADME, organism-based, Canis lupus familiaris
Settings: in vivo

CCCOCCn1c(=O)c(NCC(=O)N2CCOCC2)nc2cnc(-c3ccc(OC)nc3)cc21 and CCCOCCn1c(=O)c(NCC(=O)N2CCOCC2)nc2ncc(-c3ccc(OC)nc3)cc21 are within 1.5-fold of each other in Vd: 1.2 L/kg for the first, 0.9 L/kg for the second.

Going from CCCOCCn1c(=O)c(NC[C@H](C)O)nc2cnc(-c3ccc(OC)nc3)cc21 to CCCOCCn1c(=O)c(NCC(=O)N2CCN(CC)CC2)nc2cnc(-c3ccc(OC)nc3)cc21, the Vd rises from 4.3 L/kg to 8 L/kg (1.9-fold).

With CCCOCCn1c(=O)c(NCC(=O)NC)nc2ncc(-c3ccc(OC)nc3)cc21 the Vd was 1.3 L/kg.

System: not listed separately
Assay: Selectivity ratio of IC50 for PDE5 to IC50 for PDE6
Settings: not given

Work on CCCOCCn1c(=O)c(NCCCO)nc2cnc(-c3ccc(OC)nc3)cc21 yielded a Ratio IC50 of 30.

System: not listed separately
Assay: Volume of distribution in rat at 2 mg/kg, iv and 2 mg/kg, po
Type: ADME, organism-based
Settings: in vivo

First: CCCOCCn1c(=O)c(NCC(=O)N2CCOCC2)nc2cnc(-c3ccc(OC)nc3)cc21
Second: CCCOCCn1c(=O)c(NCC(=O)N2CCC(O)CC2)nc2cnc(-c3ccc(OC)nc3)cc21
The Vd of the first is 2-fold lower: 0.5 L/kg for the first, 1 L/kg for the second.

CCCOCCn1c(=O)c(NC[C@H](C)O)nc2cnc(-c3ccc(OC)nc3)cc21 and CCCOCCn1c(=O)c(NCCCO)nc2cnc(-c3ccc(OC)nc3)cc21 are within 1.5-fold of each other in Vd: 1 L/kg for the first, 1.2 L/kg for the second.

CCCOCCn1c(=O)c(N[C@H](CC)CO)nc2cnc(-c3ccc(OC)nc3)cc21 and CCCOCCn1c(=O)c(NCC(=O)N2CCN(CC)CC2)nc2cnc(-c3ccc(OC)nc3)cc21 are within 1.5-fold of each other in Vd: 2.4 L/kg for the first, 2.3 L/kg for the second.

CCCOCCn1c(=O)c(NCC(=O)N2CCOCC2)nc2ncc(-c3ccc(OC)nc3)cc21 and CCCOCCn1c(=O)c(NCC(=O)NC)nc2ncc(-c3ccc(OC)nc3)cc21 are within 1.5-fold of each other in Vd: 0.8 L/kg for the first, 1 L/kg for the second.

Biological target: Rod cGMP-specific 3',5'-cyclic phosphodiesterase subunit alpha (Homo sapiens, UniProt P16499)
Assay: Inhibition of PDE6
Settings: not given

Sequence of Rod cGMP-specific 3',5'-cyclic phosphodiesterase subunit alpha (P16499 whole entry): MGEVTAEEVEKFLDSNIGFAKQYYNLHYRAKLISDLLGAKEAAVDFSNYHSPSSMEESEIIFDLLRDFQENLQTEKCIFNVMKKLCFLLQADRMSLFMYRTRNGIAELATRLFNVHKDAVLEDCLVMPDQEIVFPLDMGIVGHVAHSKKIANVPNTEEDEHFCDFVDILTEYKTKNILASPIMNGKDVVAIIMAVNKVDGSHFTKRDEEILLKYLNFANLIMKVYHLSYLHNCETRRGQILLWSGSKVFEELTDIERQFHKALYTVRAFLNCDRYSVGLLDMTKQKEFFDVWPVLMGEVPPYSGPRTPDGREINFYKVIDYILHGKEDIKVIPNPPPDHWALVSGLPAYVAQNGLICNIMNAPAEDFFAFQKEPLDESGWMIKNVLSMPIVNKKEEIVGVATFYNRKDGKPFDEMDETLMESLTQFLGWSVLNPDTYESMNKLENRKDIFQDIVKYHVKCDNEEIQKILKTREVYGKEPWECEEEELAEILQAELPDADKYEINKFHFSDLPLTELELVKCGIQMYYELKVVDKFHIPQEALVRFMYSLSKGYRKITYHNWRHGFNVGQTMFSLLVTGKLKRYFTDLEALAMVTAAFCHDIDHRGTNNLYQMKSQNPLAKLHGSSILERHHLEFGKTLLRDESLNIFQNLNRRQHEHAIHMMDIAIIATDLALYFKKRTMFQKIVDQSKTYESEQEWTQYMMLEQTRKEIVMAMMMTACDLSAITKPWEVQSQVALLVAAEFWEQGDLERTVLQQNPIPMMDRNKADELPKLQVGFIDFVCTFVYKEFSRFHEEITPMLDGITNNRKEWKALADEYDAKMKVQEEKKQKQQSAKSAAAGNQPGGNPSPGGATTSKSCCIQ

Going from CCCOCCn1c(=O)c(NCC(=O)N2CCN(C)CC2)nc2cnc(-c3ccc(OC)nc3)cc21 to CCCOCCn1c(=O)c(NCC(=O)N2CCN(CC)CC2)nc2cnc(-c3ccc(OC)nc3)cc21, the IC50 rises from 14.7 nM to 55.9 nM (3.8-fold).

First: CCCOCCn1c(=O)c(N[C@H](C)CO)nc2ncc(-c3ccc(OC)nc3)cc21
Second: CCCOCCn1c(=O)c(NCC(=O)NC)nc2ncc(-c3ccc(OC)nc3)cc21
The IC50 of the first is 1.8-fold lower: 63.2 nM for the first, 115 nM for the second.

Compared with CCCOCCn1c(=O)c(NCC(=O)N2CCOCC2)nc2cnc(-c3ccc(OC)nc3)cc21, CCCOCCn1c(=O)c(NCC(=O)N2CCC(O)CC2)nc2cnc(-c3ccc(OC)nc3)cc21 is 1.5-fold higher in IC50: 16.1 nM for the first, 24.6 nM for the second.

CCCOCCn1c(=O)c(NCC(=O)NC)nc2cnc(-c3ccc(OC)nc3)cc21 and CCCOCCn1c(=O)c(NC[C@H](C)O)nc2cnc(-c3ccc(OC)nc3)cc21 are within 1.5-fold of each other in IC50: 15.2 nM for the first, 15.3 nM for the second.

Compared with CCCOCCn1c(=O)c(N[C@H](CC)CO)nc2cnc(-c3ccc(OC)nc3)cc21, CCCOCCn1c(=O)c(NCCCO)nc2cnc(-c3ccc(OC)nc3)cc21 is 1.7-fold lower in IC50: 23.2 nM for the first, 13.8 nM for the second.

For CCCOCCn1c(=O)c(NCC(=O)N2CCOCC2)nc2ncc(-c3ccc(OC)nc3)cc21, the IC50 was 114 nM.
